Read-outs that look alike come from different tables or passages of the source.
Assays:
[1] = test system: BRCA wild-type DLD-1 cells; assay: Anti-proliferative activity against cells (CCK8): DLD-1; type: cell-based; conditions: Homo sapiens, 72 h + 96 h culture
Experimental: BRCA wild-type DLD-1 cells were cultured in an RPMI-1640 medium containing 10% fetal bovine serum, 100 U/mL penicillin, and 100 µg/mL streptomycin, and incubated in an incubator with 5% saturated CO2 at 37 °C. When the cells grew to 80% confluence, they were collected, centrifuged at 300 g for 10 min, and then plated onto a 96-well plate at 1000 cells/well. After 24 h, different final concentrations (0 µM, 1 µM, and 10 µM) of PARPi were added, and the cells were cultured for another 72 h. The cells were subjected to medium exchange treatment (re-supplemented with PARPi at the same final concentrations) and then cultured for another 96 h. The 96-well plate was taken out.

PARP1 = target: T1, PARP1 (Homo sapiens, UniProt P09874); assay: PARP1 enzyme assay (histone-coated plate, chemiluminescence); type: biochemical; conditions: PARP1 0.02 nM, DNA 0.8 nM, NAD+ 3.5 µM; read-out: PARP-1 IC50
T1 construct: purchased BPS 80501
T1 sequence (P09874 whole entry): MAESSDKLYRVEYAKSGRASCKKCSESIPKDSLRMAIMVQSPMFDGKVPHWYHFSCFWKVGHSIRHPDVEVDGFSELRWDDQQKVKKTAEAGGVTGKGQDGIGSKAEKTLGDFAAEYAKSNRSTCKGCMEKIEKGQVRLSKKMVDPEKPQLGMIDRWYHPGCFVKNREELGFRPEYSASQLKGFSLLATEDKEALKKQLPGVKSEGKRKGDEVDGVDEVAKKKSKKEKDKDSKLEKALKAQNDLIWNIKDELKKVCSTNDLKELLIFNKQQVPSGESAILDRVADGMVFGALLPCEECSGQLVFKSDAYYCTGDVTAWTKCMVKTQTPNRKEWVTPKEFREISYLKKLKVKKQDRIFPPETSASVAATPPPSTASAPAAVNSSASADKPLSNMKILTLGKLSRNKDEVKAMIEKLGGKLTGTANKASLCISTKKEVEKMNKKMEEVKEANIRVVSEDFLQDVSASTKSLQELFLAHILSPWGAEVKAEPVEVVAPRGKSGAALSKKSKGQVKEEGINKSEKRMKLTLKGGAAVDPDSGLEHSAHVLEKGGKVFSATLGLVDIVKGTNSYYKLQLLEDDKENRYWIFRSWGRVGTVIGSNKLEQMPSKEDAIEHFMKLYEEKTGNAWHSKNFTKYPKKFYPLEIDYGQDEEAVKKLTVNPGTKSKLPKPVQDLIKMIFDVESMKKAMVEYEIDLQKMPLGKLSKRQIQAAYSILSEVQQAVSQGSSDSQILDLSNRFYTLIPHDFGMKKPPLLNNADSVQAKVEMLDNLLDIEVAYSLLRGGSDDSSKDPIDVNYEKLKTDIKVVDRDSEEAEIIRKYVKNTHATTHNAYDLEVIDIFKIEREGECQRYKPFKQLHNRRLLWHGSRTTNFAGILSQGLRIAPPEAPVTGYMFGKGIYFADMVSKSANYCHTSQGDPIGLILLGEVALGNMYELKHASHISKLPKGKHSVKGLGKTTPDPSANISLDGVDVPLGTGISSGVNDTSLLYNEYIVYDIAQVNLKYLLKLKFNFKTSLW

[2] = test system: BRCA-mutated MDA-MB-436 cells; assay: Anti-proliferative activity against cells (CCK8): MDA-MB-436; type: cell-based; conditions: Homo sapiens, 72 h + 96 h culture
[3] = Cerebrospinal fluid and plasma distribution in vivo; conditions: rat, male rats, intravenous 5 mg/kg, n = 1
Experimental: Experimental procedures: The compound was weighed out, a small amount of DMSO was added, and then a sodium chloride solution for injection was added to prepare a 5 mg·mL^-1 compound solution for later administration. […] 10 µL of the plasma and 10 µL of the cerebrospinal fluid were each added to a centrifuge tube, and 40 µL of acetonitrile containing 20 ng·mL^-1 internal standard SAHA was added for precipitation. […] The supernatant was collected and transferred to a sample vial for later analysis. Range of standard curve: 1-1000 ng·mL^-1.

[4] = cerebrospinal fluid, read-out: Cerebrospinal fluid

## CCc1cc2c([nH]c1=O)CC(CN1CCN(c3ccc(C(=O)NC4CC4)nc3F)CC1)OC2 (stereo not drawn) [Compound 3, N-Cyclopropyl-5-(4-((3-ethyl-2-oxo-1,5,7,8-tetrahydro-2H-pyrano[4,3-b]pyridin-7-yl)methyl)piperazin-1-yl)-6-fluoropicolinamide]
[1]
  IC50: > 1000 nM
PARP1
  IC50: ≤ 50 nM
[2]
  IC50: 1.5 nM

## CCc1cc2c([nH]c1=O)CC(CN1CCN(c3ccc(C(=O)Nc4cnn(C)c4)nc3F)CC1)OC2 (stereo not drawn) [Example 78, 5-(4-((3-Ethyl-2-oxo-1,5,7,8-tetrahydro-2H-pyrano[4,3-b]pyridin-7-yl)methyl)piperazin-1-yl) -6-fluoro-N-(1-methyl-1H-pyrazol-4-yl)picolinamide]
[1]
  IC50: > 1000 nM
PARP1
  IC50: ≤ 50 nM
[2]
  IC50: 2.8 nM

## CNC(=O)c1ccc(C2=CCN(CC3Cc4[nH]c(=O)c(C)cc4CO3)CC2)c(Cl)n1 (stereo not drawn) [Example 70, 2-Chloro-N-methyl-1'-((3-methyl-2-oxo-1,5,7,8-tetrahydro-2H-pyrano[4,3-b]pyridin-7-yl)methyl)-1',2',3',6'-tetrahydro-[3,4'-bipyridine]-6-carboxamide]
[1]
  IC50: > 1000 nM
PARP1
  IC50: 50 to 500 nM
[2]
  IC50: 300 nM

## [2H]C([2H])([2H])NC(=O)c1ccc(N2CCN(C[C@H]3CCc4nc(C)c(=O)[nH]c4C3)CC2)c(F)n1 [Example 82, (S)-6-Fluoro-N-(methyl-d3)-5-(4-((2-methyl-3-oxo-3,4,5,6,7,8-hexahydroquinoxalin-6-yl)methyl)piperazin-1-yl)picolinamide]
[1]
  IC50: > 1000 nM
[3]; [4]
  concentration at 0.25 h: 119 ng/g
  concentration at 2 h: 0 ng/g
[3]; plasma, read-out: Plasma
  concentration at 0.25 h: 2740 ng/mL
  concentration at 2 h: 77 ng/mL

## CNC(=O)c1ccc(N2CCN(CC3Cc4[nH]c(=O)c(C5CC5)cc4CO3)CC2)c(Cl)n1 (stereo not drawn) [Example 73, 6-Chloro-5-(4-((3-cyclopropyl-2-oxo-1,5,7,8-tetrahydro-2H-pyrano[4,3-b]pyridin-7-yl)methyl)piperazin-1-yl)-N-methylpicolinamide]
[1]
  IC50: > 1000 nM
PARP1
  IC50: 50 to 500 nM
[2]
  IC50: 15 nM

## CNC(=O)c1ccc(N2CCN(CC3Cc4[nH]c(=O)c(C)cc4CO3)CC2)c(C#N)n1 (stereo not drawn) [Example 76, 6-Cyano-N-methyl-5-(4-((3-methyl-2-oxo-1,5,7,8-tetrahydro-2H-pyrano[4,3-b]pyridin-7-yl)methyl)piperazin-1-yl)picolinamide]
[1]
  IC50: > 1000 nM
PARP1
  IC50: ≤ 50 nM
[2]
  IC50: 9.6 nM

## CNC(=O)c1ccc(N2CCN(C[C@H]3Cc4[nH]c(=O)c(C)cc4CO3)CC2)c(Cl)n1 [Example 95, (R)-6-chloro-N-methyl-5-(4-((3-methyl-2-oxo-1,5,7,8-tetrahydro-2H-pyrano[4,3-b]pyridin-7-yl)methyl)piperazin-1-yl)picolinamide]
[1]
  IC50: > 1000 nM
PARP1
  IC50: ≤ 50 nM
[2]
  IC50: 10.5 nM

## CCc1cc2c([nH]c1=O)CC(CN1CC=C(c3ccc(C(=O)NC)nc3)CC1)OC2 (stereo not drawn) [Compound 5, 1'-((3-Ethyl-2-oxo-1,5,7,8-tetrahydro-2H-pyrano[4,3-b]pyridin-7-yl)methyl)-N-methyl-1',2',3',6'-tetrahydro-[3,4'-bipyridine]-6-carboxamide]
[1]
  IC50: > 1000 nM
PARP1
  IC50: ≤ 50 nM
[2]
  IC50: 7.5 nM

## CNC(=O)c1ccc(N2CCN(CC3COc4cc(C)c(=O)[nH]c4C3)CC2)c(F)n1 (stereo not drawn) [Example 101, 6-Fluoro-N-methyl-5-(4-((7-methyl-6-oxo-3,4,5,6-tetrahydro-2H-pyrano[3,2-b]pyridin-3-yl)methyl)piperazin-1-yl)picolinamide]
[1]
  IC50: > 1000 nM
PARP1
  IC50: ≤ 50 nM
[3]; [4]
  concentration at 0.25 h: 52 ng/g
  concentration at 2 h: 8 ng/g
[3]; plasma, read-out: Plasma
  concentration at 0.25 h: 2820 ng/mL
  concentration at 2 h: 592 ng/mL

## [2H]C([2H])([C@H]1CCc2nc(C)c(=O)[nH]c2C1)N1CCN(c2ccc(C(=O)NC3CC3)nc2F)CC1 [Example 88, (S)-N-Cyclopropyl-6-fluoro-5-(4-((2-methyl-3-oxo-3,4,5,6,7,8-hexahydroquinoxalin-6-yl)methyl-d2)piperazin-1-yl)picolinamide]
[1]
  IC50: > 1000 nM
PARP1
  IC50: ≤ 50 nM
[2]
  IC50: 6.5 nM

## CNC(=O)c1ccc(N2CCN(CC3Cc4[nH]c(=O)c(Cl)cc4CO3)CC2)c(F)n1 (stereo not drawn) [Example 64, 5-(4-((3-Chloro-2-oxo-1,5,7,8-tetrahydro-2H-pyrano[4,3-b]pyridin-7-yl)methyl)piperazin-1-yl)-6-fluoro-N-methylpicolinamide]
[1]
  IC50: > 1000 nM
PARP1
  IC50: 50 to 500 nM
[3]; [4]
  concentration at 0.25 h: 102 ng/g
  concentration at 2 h: 0 ng/g
[3]; plasma, read-out: Plasma
  concentration at 0.25 h: 1620 ng/mL
  concentration at 2 h: 503 ng/mL

## CNC(=O)c1ccc(C2CCN(CC3Cc4[nH]c(=O)c(C5CC5)cc4CO3)CC2)c(F)n1 (stereo not drawn) [Example 61, 5-(1-((3-Cyclopropyl-2-oxo-1,5,7,8-tetrahydro-2H-pyrano[4,3-b]pyridin-7-yl)methyl)piperidin-4-yl)-6-fluoro-N-methylpicolinamide]
[1]
  IC50: > 1000 nM
PARP1
  IC50: 50 to 500 nM
[2]
  IC50: 360 nM

## CNC(=O)c1ccc(N2CCN(C[C@H]3CCc4nc(C)c(=O)[nH]c4C3)CC2)c(C)n1 [Example 47, (S)-N,6-Dimethyl-5-(4-((2-methyl-3-oxo-3,4,5,6,7,8-hexahydroquinoxalin-6-yl)methyl)piperazin-1-yl)picolinamide]
[1]
  IC50: > 1000 nM
PARP1
  IC50: ≤ 50 nM
[3]; [4]
  concentration at 0.25 h: 64 ng/g
  concentration at 2 h: 13 ng/g
[3]; plasma, read-out: Plasma
  concentration at 0.25 h: 1010 ng/mL
  concentration at 2 h: 43 ng/mL
[2]
  IC50: 4 nM

## CNC(=O)c1ccc(C2=CCN(CC3Cc4[nH]c(=O)c(C)cc4CO3)CC2)c(F)n1 (stereo not drawn) [Example 50, 2-Fluoro-N-methyl-1'-((3-methyl-2-oxo-1,5,7,8-tetrahydro-2H-pyrano[4,3-b]pyridin-7-yl)methyl)-1',2',3',6'-tetrahydro-[3,4'-bipyridine]-6-carboxamide]
[1]
  IC50: > 1000 nM
PARP1
  IC50: 50 to 500 nM
[2]
  IC50: 350 nM

## CNC(=O)c1ccc(C2CCN(CC3Cc4[nH]c(=O)c(C)cc4CO3)CC2)c(F)n1 (stereo not drawn) [Example 59, 6-Fluoro-N-methyl-5-(1-((3-methyl-2-oxo-1,5,7,8-tetrahydro-2H-pyrano[4,3-b]pyridin-7-yl)methyl)piperidin-4-yl)picolinamide]
[1]
  IC50: > 1000 nM
PARP1
  IC50: 50 to 500 nM
[2]
  IC50: 300 nM

## CNC(=O)c1ccc(N2CCN(CC3Cc4[nH]c(=O)c(C)c(C)c4CO3)CC2)c(Cl)n1 (stereo not drawn) [Example 100, 6-Chloro-5-(4-((3,4-dimethyl-2-oxo-1,5,7,8-tetrahydro-2H-pyrano[4,3-b]pyridin-7-yl)methyl)piperazin-1-yl)-N-methylpicolinamide]
[1]
  IC50: > 1000 nM
PARP1
  IC50: ≤ 50 nM
[2]
  IC50: 15.5 nM

## CNC(=O)c1ccc(C2=CCN(CC3Cc4[nH]c(=O)c(C(F)F)cc4CO3)CC2)c(F)n1 (stereo not drawn) [Example 52, 1'-((3-(Difluoromethyl)-2-oxo-1,5,7,8-tetrahydro-2H-pyrano[4,3-b]pyridin-7-yl)methyl)-2-flu oro-N-methyl-1',2',3',6'-tetrahydro-[3,4'-bipyridine]-6-carboxamide]
[1]
  IC50: > 1000 nM
PARP1
  IC50: 50 to 500 nM
[2]
  IC50: 200 nM

## CNC(=O)c1ccc(N2CCN(CC3Cc4[nH]c(=O)c(C)cc4CO3)CC2)c(F)n1 (stereo not drawn) [Example 39, 6-Fluoro-N-methyl-5-(4-((3-methyl-2-oxo-1,5,7,8-tetrahydro-2H-pyrano[4,3-b]pyridin-7-yl)methyl)piperazin-1-yl)picolinamide]
[1]
  IC50: > 1000 nM
PARP1
  IC50: 50 to 500 nM
[3]; [4]
  concentration at 0.25 h: 103 ng/g
  concentration at 2 h: 26 ng/g
[3]; plasma, read-out: Plasma
  concentration at 0.25 h: 8200 ng/mL
  concentration at 2 h: 4890 ng/mL

## CCc1nc2c([nH]c1=O)C[C@@H](CN1CCC(c3ccc(C(=O)NC)nc3F)CC1)CC2 [Example 54, (S)-5-(1-((2-Ethyl-3-oxo-3,4,5,6,7,8-hexahydroquinoxalin-6-yl)methyl)piperidin-4-yl)-6-fluor o-N-methylpicolinamide]
[1]
  IC50: > 1000 nM
PARP1
  IC50: 50 to 500 nM
[2]
  IC50: 250 nM

## C=Cc1cc2c([nH]c1=O)CC(CN1CC=C(c3ccc(C(=O)NC)nc3F)CC1)OC2 (stereo not drawn) [Example 68, 2-Fluoro-N-methyl-1'-((2-oxo-3-vinyl-1,5,7,8-tetrahydro-2H-pyrano[4,3-b]pyridin-7-yl)methyl)-1',2',3',6'-tetrahydro-[3,4'-bipyridine]-6-carboxamide]
[1]
  IC50: > 1000 nM
PARP1
  IC50: ≤ 50 nM
[2]
  IC50: 6 nM

## CCc1cc2c([nH]c1=O)CC(CN1CCN(c3ccc(C(=O)NC)nc3)CC1)OC2 (stereo not drawn) [Compound 1, 5-(4-((3-Ethyl-2-oxo-1,5,7,8-tetrahydro-2H-pyrano[4,3-b]pyridin-7-yl)methyl)piperazin-1-yl) -N-methylpicolinamide]
[1]
  IC50: > 1000 nM
PARP1
  IC50: ≤ 50 nM
[2]
  IC50: 300 nM

Source: patent publication EP4768487A1, “FUSED LACTAM RING COMPOUND AND USE THEREOF” (Chengdu Zenitar Biomedical Technology Co., Ltd., priority 2023, dated 2025)
